Data: ChEMBL document CHEMBL1201862, “PubChem BioAssay data set” (2004)
Activity calls are given as the source filed them.

How the values were obtained:
[1] = biological target: Peroxisome proliferator-activated receptor gamma/Nuclear receptor coactivator 2 (Homo sapiens, UniProt P37231); type: functional;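 also: agonist potency for raising coactivator recruitment to the receptor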
[2] = biological target: Peroxisome proliferator-activated receptor gamma/Nuclear receptor coactivator 1 (Homo sapiens, UniProt P37231); type: functional;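 also: agonist potency as compounds enhance coactivator SRC-1 recruitment to PPARgamma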
[3] = biological target: Peroxisome proliferator-activated receptor gamma/Nuclear receptor coactivator 3 (Homo sapiens, UniProt P37231); type: functional;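 also: agonist potency for raising coactivator recruitment to the receptor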
[4] = biological target: Acyl-homoserine lactone acylase PvdQ (Pseudomonas aeruginosa (strain LESB58), UniProt Q9I194); assay: P. aeruginosa PvdQ acylase inhibitors, dose response, biochemical, fluorescence, plate reader and imaging, cherry-picks (AID 493231)
HEK293 [5] = assay: cells; type: functional, cell-based; settings: Homo sapiens
HEK293 [6] = assay: NOD1 signaling inhibitors, primary screen, cell-based, luminescence, uHTS (AID 1578); type: functional; settings: Homo sapiens
HEK293 [7] = assay: cells; type: functional, cell-based; settings: Homo sapiens; remark: listed apart in the source
Vero [8] = assay: cells; type: functional; settings: Chlorocebus sabaeus
Vero [9] = assay: cells; type: functional, cell-based; settings: Chlorocebus sabaeus
HEK293 [10] = assay: NOD2 signaling inhibitors in MDP-stimulated cells, cell-based, uHTS, luminescence (AID 2001); type: functional; settings: Homo sapiens
[11] = A Cell Based Secondary Assay To Explore Cytotoxicity of Compounds that Sensitize Mycobacterium Tuberculosis to Beta-Lactam Antibiotics.; type: functional
Vero [12] = assay: host cell cytotoxicity of antiviral hits, dose response, cytotoxicity control for West Nile virus antiviral project, secondary assay (AID 1650); type: functional; settings: Chlorocebus sabaeus
[13] = M. tuberculosis H37Rv growth inhibitors, H37Rv strain (AID 1626); type: functional
Beta-galactosidase = Beta-galactosidase (Escherichia coli, UniProt Q8VNN2); assay: PubChem AID 485352; type: functional
[14] = biological target: T1, Type-1 angiotensin II receptor (Homo sapiens, UniProt P30556); assay: AT1 receptor antagonists, dose response, selectivity assay for APJ receptor antagonist project, cell-based, uHTS hits (AID 463214); type: functional;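 also: antagonist potency against angiotensin II stimulated AT1 response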
T1 sequence (P30556 whole entry): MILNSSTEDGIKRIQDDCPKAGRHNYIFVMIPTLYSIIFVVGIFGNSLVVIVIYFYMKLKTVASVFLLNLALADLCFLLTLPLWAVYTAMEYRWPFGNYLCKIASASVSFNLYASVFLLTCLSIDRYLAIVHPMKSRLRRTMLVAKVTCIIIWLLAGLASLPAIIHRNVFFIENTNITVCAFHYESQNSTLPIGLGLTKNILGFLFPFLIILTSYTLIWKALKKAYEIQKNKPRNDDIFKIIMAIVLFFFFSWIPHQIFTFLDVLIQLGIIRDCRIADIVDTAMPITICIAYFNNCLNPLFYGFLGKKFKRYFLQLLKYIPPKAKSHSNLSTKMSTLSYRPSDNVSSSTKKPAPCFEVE

[15] = HIV-1 Env-mediated cell fusion inhibitors, dose response, CCR5-tropic Env (AID 2279); type: functional
[16] = biological target: DNA dC->dU-editing enzyme APOBEC-3G (Homo sapiens, UniProt Q9HC16); assay: Dose Response confirmation of small molecule APOBEC3G DNA Deaminase Inhibitors via a fluorescence-based single-stranded DNA deaminase assay. [Related pubchem assays (depositor defined):AID493012, AID493028]; type: functional
[17] = biological target: T2, Rac GTPase-activating protein 1 (Homo sapiens, UniProt Q9H0H5); assay: MgcRacGAP GTPase-activating activity inhibitors, confirmation, biochemical, ADP Hunter fluorescence, primary and confirmatory (AID 624330); type: functional
T2 sequence (Q9H0H5 whole entry): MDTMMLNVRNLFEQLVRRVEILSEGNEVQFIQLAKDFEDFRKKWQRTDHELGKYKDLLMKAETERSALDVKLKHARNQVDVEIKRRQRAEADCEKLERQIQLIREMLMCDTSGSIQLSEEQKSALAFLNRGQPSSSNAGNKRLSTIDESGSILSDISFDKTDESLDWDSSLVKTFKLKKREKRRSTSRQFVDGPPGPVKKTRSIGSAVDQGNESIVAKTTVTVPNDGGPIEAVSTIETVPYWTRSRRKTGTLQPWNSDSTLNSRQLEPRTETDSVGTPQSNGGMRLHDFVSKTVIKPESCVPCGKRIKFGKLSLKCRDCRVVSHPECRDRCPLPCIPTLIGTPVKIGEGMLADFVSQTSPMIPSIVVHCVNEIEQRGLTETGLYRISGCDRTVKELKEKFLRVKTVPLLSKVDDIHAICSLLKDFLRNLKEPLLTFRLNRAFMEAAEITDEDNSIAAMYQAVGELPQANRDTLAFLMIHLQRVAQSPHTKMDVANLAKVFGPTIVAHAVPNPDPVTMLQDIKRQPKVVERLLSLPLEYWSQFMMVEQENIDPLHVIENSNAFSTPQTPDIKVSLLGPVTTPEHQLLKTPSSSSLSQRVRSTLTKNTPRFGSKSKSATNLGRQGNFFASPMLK

[18] = biological target: DNA dC->dU-editing enzyme APOBEC-3A (Homo sapiens, UniProt P31941); assay: APOBEC3A DNA deaminase inhibitors, dose response, biochemical (AID 504722); type: functional

Peroxisome proliferator-activated receptor gamma/Nuclear receptor coactivator 3, sequence (P37231 whole entry): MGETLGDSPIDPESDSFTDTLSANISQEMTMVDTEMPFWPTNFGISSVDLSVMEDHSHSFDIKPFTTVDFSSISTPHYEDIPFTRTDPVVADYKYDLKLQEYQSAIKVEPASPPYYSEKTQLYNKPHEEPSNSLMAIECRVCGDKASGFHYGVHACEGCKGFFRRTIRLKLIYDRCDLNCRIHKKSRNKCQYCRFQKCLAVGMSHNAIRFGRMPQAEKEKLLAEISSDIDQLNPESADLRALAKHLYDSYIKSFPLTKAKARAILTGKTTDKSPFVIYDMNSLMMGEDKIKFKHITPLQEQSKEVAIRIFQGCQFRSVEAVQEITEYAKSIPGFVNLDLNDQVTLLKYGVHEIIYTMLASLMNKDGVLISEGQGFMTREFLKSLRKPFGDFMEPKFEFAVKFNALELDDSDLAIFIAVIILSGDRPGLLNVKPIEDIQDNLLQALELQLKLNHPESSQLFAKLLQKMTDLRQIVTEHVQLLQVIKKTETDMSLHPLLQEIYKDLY
Peroxisome proliferator-activated receptor gamma/Nuclear receptor coactivator 3, sequence (Q9Y6Q9 whole entry, further chain): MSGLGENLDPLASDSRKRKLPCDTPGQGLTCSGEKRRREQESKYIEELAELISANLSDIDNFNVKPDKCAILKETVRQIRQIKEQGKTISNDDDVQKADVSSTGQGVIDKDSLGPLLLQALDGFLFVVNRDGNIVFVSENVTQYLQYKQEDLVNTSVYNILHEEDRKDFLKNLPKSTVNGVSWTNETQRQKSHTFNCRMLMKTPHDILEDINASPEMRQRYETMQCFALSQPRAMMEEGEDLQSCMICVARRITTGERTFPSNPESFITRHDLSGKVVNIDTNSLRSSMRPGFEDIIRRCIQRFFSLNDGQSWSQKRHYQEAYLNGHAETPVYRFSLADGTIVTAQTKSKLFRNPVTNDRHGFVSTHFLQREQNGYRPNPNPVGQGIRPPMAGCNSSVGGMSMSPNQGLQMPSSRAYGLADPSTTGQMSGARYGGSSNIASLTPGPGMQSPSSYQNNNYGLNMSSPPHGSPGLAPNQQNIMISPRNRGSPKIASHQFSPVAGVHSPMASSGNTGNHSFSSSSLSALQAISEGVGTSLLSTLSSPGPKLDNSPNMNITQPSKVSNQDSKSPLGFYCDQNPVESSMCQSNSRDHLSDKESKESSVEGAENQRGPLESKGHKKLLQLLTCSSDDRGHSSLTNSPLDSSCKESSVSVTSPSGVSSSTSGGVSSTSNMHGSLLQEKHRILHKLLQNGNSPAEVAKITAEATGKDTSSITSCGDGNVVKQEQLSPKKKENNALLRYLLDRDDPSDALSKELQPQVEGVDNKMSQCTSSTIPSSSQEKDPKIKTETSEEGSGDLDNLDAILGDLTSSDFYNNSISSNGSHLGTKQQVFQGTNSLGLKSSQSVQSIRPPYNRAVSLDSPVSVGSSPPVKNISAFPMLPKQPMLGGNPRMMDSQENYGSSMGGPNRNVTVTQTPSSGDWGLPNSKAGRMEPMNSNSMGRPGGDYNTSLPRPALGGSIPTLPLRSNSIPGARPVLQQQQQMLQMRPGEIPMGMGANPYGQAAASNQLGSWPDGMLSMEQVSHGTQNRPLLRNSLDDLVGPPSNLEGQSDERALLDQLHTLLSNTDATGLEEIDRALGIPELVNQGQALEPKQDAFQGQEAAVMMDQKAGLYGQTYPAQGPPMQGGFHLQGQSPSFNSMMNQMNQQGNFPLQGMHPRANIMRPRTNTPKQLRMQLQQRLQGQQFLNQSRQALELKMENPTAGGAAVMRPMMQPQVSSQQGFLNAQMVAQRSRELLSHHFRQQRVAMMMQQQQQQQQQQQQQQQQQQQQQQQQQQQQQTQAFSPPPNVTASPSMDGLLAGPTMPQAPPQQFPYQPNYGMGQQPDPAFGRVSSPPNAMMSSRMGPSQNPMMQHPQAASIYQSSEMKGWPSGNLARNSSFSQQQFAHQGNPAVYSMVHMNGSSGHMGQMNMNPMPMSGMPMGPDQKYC
Peroxisome proliferator-activated receptor gamma/Nuclear receptor coactivator 2, sequence (P37231 whole entry): as the sequence (P37231 whole entry) above
Peroxisome proliferator-activated receptor gamma/Nuclear receptor coactivator 2, sequence (Q15596 whole entry, further chain): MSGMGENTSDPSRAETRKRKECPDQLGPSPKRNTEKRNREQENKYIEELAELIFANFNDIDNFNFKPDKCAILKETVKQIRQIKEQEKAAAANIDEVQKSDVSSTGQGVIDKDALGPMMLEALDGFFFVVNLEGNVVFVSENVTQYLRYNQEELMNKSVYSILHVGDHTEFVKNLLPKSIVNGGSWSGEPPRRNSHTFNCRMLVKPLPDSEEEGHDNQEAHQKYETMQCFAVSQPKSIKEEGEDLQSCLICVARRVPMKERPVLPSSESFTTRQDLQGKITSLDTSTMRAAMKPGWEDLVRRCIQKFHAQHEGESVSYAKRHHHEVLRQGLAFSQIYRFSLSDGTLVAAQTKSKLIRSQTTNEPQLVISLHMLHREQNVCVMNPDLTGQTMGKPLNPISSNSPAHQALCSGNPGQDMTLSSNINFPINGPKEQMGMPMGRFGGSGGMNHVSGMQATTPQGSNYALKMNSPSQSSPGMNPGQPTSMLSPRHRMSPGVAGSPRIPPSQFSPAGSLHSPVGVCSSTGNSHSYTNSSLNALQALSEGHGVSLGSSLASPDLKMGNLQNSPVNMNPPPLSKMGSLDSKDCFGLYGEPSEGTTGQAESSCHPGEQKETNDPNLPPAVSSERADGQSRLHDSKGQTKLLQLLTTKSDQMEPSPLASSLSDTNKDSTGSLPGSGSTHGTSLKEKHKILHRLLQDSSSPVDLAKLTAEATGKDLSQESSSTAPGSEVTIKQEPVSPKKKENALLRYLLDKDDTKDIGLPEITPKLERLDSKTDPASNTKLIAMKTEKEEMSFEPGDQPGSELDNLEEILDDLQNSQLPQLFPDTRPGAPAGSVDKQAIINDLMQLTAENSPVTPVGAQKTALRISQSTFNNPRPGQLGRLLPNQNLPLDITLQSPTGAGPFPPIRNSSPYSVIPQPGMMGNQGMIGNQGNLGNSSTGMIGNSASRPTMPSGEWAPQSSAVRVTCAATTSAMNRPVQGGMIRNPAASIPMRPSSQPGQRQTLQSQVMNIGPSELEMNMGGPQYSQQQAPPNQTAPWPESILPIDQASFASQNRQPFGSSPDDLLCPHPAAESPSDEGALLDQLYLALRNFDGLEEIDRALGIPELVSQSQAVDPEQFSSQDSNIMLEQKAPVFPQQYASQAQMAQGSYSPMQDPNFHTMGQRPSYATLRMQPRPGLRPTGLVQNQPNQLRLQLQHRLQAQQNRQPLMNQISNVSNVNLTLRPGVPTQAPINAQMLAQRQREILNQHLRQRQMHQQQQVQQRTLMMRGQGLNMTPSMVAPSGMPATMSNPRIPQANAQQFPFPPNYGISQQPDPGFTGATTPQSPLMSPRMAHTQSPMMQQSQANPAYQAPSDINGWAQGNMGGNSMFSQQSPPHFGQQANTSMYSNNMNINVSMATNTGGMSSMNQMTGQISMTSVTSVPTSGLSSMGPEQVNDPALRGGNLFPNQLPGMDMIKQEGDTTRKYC
Acyl-homoserine lactone acylase PvdQ, sequence (Q9I194 24-193 limits assumed): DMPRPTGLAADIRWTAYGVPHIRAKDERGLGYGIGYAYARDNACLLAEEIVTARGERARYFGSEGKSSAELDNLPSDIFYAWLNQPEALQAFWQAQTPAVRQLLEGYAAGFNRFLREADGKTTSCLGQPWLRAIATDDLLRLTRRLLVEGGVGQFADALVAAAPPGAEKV
Acyl-homoserine lactone acylase PvdQ, sequence (Q9I194 217-762 limits assumed): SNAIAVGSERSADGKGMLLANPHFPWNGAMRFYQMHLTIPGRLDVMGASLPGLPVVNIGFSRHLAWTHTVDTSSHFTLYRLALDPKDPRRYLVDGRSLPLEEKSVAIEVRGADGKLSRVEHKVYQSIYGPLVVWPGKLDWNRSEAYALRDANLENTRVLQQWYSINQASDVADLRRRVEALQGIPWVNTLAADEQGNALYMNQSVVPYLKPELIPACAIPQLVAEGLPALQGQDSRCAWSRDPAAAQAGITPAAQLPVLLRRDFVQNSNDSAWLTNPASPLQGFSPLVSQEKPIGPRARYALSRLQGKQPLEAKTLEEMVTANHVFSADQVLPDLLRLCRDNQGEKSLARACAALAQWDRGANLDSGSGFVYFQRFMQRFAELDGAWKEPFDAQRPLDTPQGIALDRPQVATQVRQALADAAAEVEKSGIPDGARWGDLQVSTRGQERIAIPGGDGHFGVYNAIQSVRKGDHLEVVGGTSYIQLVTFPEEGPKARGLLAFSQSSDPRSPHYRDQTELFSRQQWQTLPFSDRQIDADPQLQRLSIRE
DNA dC->dU-editing enzyme APOBEC-3G, sequence (Q9HC16 whole entry): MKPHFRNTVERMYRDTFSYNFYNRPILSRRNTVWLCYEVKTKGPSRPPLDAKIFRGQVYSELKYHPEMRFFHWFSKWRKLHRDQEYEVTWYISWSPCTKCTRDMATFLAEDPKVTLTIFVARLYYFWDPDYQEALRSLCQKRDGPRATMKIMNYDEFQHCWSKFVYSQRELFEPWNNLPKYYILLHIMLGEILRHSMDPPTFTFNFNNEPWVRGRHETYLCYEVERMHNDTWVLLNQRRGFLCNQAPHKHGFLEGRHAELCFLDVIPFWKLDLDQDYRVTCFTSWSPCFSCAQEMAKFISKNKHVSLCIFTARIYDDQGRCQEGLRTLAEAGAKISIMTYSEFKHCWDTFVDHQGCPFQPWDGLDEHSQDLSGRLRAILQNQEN

## CC(C)c1ccc(OCC(=O)NC(=S)Nc2ccc3c4c(cccc24)CC3)cc1
[1]
  EC50: > 79.4 µM (not active)
[2]
  EC50: > 79.4 µM (not active)
[3]
  EC50: > 79.4 µM (not active)

## CCOc1ccc(-n2cccc2C=O)cc1
[4]
  AC50: 7.29 µM (active)

## Cc1cc(NC(=O)c2cc(F)c(F)cc2Cl)no1
[4]
  AC50: 24 µM (active)

## Cn1c(/C=C/c2ccc(Br)cc2)c([N+](=O)[O-])c(=O)n(C)c1=O
HEK293 [5]
  IC50: 14.3 µM (active)
HEK293 [6]
  EC50: 14.4 µM (active)
HEK293 [7]
  IC50: 4.31 µM (active)
Vero [8]
  CC50: 12.1 µM (active)
Vero [9]
  IC50: 23.9 µM (active)
HEK293 [10]
  IC50: 4.87 µM (active)
[11]
  CC50: 21.9 µM (active)
Vero [12]
  CC50: 16 µM (active)

## COc1ccc(NC2(c3ccc(Cl)cc3)C(=O)c3ccccc3C2=O)cc1
[13]
  IC50: > 100 µM (active)
Beta-galactosidase
  EC50: > 40 µM (inactive)
[14]
  IC50: 17.9 µM (active)

## CCn1c(SCC(=O)Nc2ccc(Cl)cc2)nc2nc3c(cc2c1=O)CCCC3
[1]
  EC50: > 79.4 µM (not active)
[2]
  EC50: > 79.4 µM (not active)
[3]
  EC50: > 79.4 µM (not active)

## CC(C)(C)c1ccc2c(c1)OC(C(=O)N/N=C\c1ccc(-c3cccc(C(=O)O)c3)o1)CO2 (stereo not drawn)
[15]
  IC50: > 50 µM (active)

## Sc1nnc(-c2cccnc2)n1/N=C/c1cccs1
[16]
  IC50: 2.75 µM (active)
[17]
  IC50: 58 µM (active)
[18]
  IC50: > 100 µM (inactive)
